Assay results as given in US9144573B2, “Prostaglandin transporter inhibitors” (Albert Einstein College of Medicine of Yeshiva University, priority 2006, dated 2015).
Entries after “also recorded” stand apart in the source; their conditions may differ.

Assays:
MDCK cells = assay type: cell-based, Canine
Procedure: We used TGBz T34 to further isolate the efflux process of PGE2. […] The intracellular concentrations of PGE2 at different time points were calculated by dividing the total amount of intracellular PGE2 on the dish by the total volume of cells, based on cell number counts and published individual cell volume (Schneider et al., 2000; Hill et al., 2004). Since the addition of inhibitor involved removing extracellular tracer PGE2, the intracellular PGE2 concentration at the point of inhibitor addition approximates the outwardly-directed PGE2 gradient.
This linearity held true even when the intracellular PGE2 concentration was extended to almost 800 nM, i.e. 10 fold the Km of PGT for PGE2 (data not shown). From the slope of the relationship, we generated a range of permeability coefficients for PGE2 efflux of 1.2 to 5.3×10^−6 cm/sec, based on the range of MDCK cell volumes reported in the literature (Schneider et al., 2000; Hill et al., 2004). […] The ratio of the influx-to-efflux permeability coefficients was thus in the range 2.7 to 117.

[1] = biological target: T1, prostaglandin transporter (PGT) (Rattus norvegicus, UniProt Q00910); experiment: PGE2 uptake by MDCK cells stably expressing PGT; assay type: cell-based; conditions: for inhibition at 5 µM: MDCK, read-out: % Inhib. at 5 μM
T1 construct: GFP; expressed in transfected cells
Procedure: MDCK or 3T3 cells were seeded at 15-20% confluence on 24-well plates. The day on which the cells were seeded was considered day 1. PGE2 uptake experiments were conducted on day 4. All of the PGE2 uptake experiments were conducted at room temperature. On day 4, cells were washed twice with Waymouth buffer (135 mM NaCl, 13 mM H-Hepes, 13 mM Na-Hepes, 2.5 mM CaCl2, 1.2 mM MgCl2, 0.8 mM MgSO4, 5 mM KCl, and 28 mM D-glucose). Then 200 μL of Waymouth buffer containing [^3H]PGE2 was added to each well. At the designated time, the uptake of [^3H]PGE2 was stopped by aspiration of uptake buffer; this was followed by immediate washing twice with 500 μL of chilled Waymouth buffer. Cells were then lysed with 100 μL lysis buffer containing 0.25% SDS and 0.05 N NaOH. 1.5 mL of scintillation solution was added to each well, and intracellular [^3H]PGE2 was counted by MicroBeta Counter.
For preliminary screening of the compounds, 25 μL of Waymouth buffer containing small organic compounds were added to each well; this was immediately followed by the addition of 175 μL of Waymouth buffer containing [^3H]PGE2. In each well, the total volume of uptake medium was 200 μL. Organic compounds were first dissolved in DMSO and then diluted in Waymouth buffer. The percent inhibition of [^3H]PGE2 uptake by compounds was calculated as [(uptakevehicle−uptakeinhibitor)÷(uptakevehicle)]×100.
The initial velocities at various initial extracellular concentrations of PGE2 were determined from the PGE2 uptake in the first 2 minutes; these were linear over the time course of PGE2 uptake. Ki values were obtained by curve fitting the reciprocal of initial velocities of PGE2 uptake versus the reciprocal of extracellular PGE2 concentrations at various concentrations of the inhibitors. At low PGE2 concentrations, the extracellular concentrations were taken as ^3H labeled PGE2, which has a specific activity of 500 μCi/mol. At high concentrations of PGE2, a mixture of ^3H labeled and unlabeled PGE2 was made to a final specific activity of 25 μCi/mol.

[2] = Table 1, PGE2 uptake, MDCK cells expressing PGT

Compound	inhibition at 5 µM [1] [%]	Ki ([1]; Table 2) [µM]	also measured
CCCCC[C@H](O)/C=C/[C@H]1[C@H](O)CC(=O)[C@@H]1C/C=C\CCCC(=O)O [PGE2, prostaglandin E2]	–	–	permeability coefficient for PGE2 efflux (MDCK cells): 1.2-5.3 ×10^−6 cm/sec; permeability coefficient for PGE2 influx (by simple diffusion) (MDCK cells): 0.45 ×10⁻⁶ cm/s; ratio of the influx-to-efflux permeability coefficients (MDCK cells): 2.7-117
CCCNc1nc(NCCOCCOCCNC(=O)c2ccccc2)nc(Nc2ccc(C(=O)NCCOCCOCCN=[N+]=[N-])cc2)n1 [T03A]	54	–	–
CCCCCCCNc1nc(NCCOCCOCCNC(=O)c2ccccc2)nc(Nc2ccc(C(=O)NCCOCCOCCN=[N+]=[N-])cc2)n1 [T07A]	74	–	–
CC(C)CCNc1nc(NCCOCCOCCNC(=O)c2ccccc2)nc(Nc2ccc(C(=O)NCCOCCOCCN=[N+]=[N-])cc2)n1 [T08A]	64	–	–
[N-]=[N+]=NCCOCCOCCNC(=O)c1ccc(Nc2nc(NCCOCCOCCNC(=O)c3ccccc3)nc(NCc3ccccc3)n2)cc1 [T14A]	56	–	–
[N-]=[N+]=NCCOCCOCCNC(=O)c1ccc(Nc2nc(NCCOCCOCCNC(=O)c3ccccc3)nc(NCCc3ccc(F)cc3)n2)cc1 [T18A]	76	–	–
[N-]=[N+]=NCCOCCOCCNC(=O)c1ccc(Nc2nc(NCCCc3ccccc3)nc(NCCOCCOCCNC(=O)c3ccccc3)n2)cc1 [T21A]	72	–	–
[N-]=[N+]=NCCOCCOCCNC(=O)c1ccc(Nc2nc(NCCCCc3ccccc3)nc(NCCOCCOCCNC(=O)c3ccccc3)n2)cc1 [T22A]	72	–	–
[N-]=[N+]=NCCOCCOCCNC(=O)c1ccc(Nc2nc(NCCOCCOCCNC(=O)c3ccccc3)nc(Nc3ccc(F)cc3)n2)cc1 [T25A]	82	3.9	–
[N-]=[N+]=NCCOCCOCCNC(=O)c1ccc(Nc2nc(NCCOCCOCCNC(=O)c3ccccc3)nc(Nc3ccccc3)n2)cc1 [T28A]	84	3.6	–
[N-]=[N+]=NCCOCCOCCNC(=O)c1ccc(Nc2nc(NCCOCCOCCNC(=O)c3ccccc3)nc(NCCc3ccccc3)n2)cc1 [T34]	84	3.7	Ki ([1]; 0 min pre-incubation, separate experiments): 1.22 µM; intracellular PGE2 after addition of inhibitor at peak level ([1]; 25 μM added at 9 minutes): rapid depletion of intracellular PGE2; time for intracellular PGE2 to fall to baseline ([1]; 25 μM added at peak (9 minutes)): ≤ 5 min; inhibition of PGE2 transport by PGT ([1]; 25 μM, added at the beginning of uptake, listed as TGBz T34): overshoot phenomenon completely disappeared; also recorded: full inhibition; Ki ([1]; 10 min pre-incubation): 1.63 µM; Ki ([1]; 20 min pre-incubation): 1.41 µM; Ki [1, 2]: 3.7 ± 0.2 µM; mode of inhibition ([1]; double reciprocal analysis): competitive inhibitor; Ki ([1]; double-reciprocal plots, PGE2 varied at 0, 3, 6 μM inhibitor): 3.7 ± 0.2 µM
[N-]=[N+]=NCCOCCOCCNC(=O)c1ccc(Nc2nc(NCCOCCOCCNC(=O)c3ccccc3)nc(NCCc3ccc(O)cc3)n2)cc1 [T41]	65	6.2	Ki [1, 2]: 6.2 ± 0.7 µM
